Data: ChEMBL document CHEMBL1926625, “Identification of benzoxazin-3-one derivatives as novel, potent, and selective nonsteroidal mineralocorticoid receptor antagonists” (J Med Chem, 2011)
pIC50: −log10 of the molar value.

Experiments:
[1] = biological target: T1, Mineralocorticoid receptor (Homo sapiens, UniProt P08235); assay: biochemical
T1 sequence (P08235 whole entry): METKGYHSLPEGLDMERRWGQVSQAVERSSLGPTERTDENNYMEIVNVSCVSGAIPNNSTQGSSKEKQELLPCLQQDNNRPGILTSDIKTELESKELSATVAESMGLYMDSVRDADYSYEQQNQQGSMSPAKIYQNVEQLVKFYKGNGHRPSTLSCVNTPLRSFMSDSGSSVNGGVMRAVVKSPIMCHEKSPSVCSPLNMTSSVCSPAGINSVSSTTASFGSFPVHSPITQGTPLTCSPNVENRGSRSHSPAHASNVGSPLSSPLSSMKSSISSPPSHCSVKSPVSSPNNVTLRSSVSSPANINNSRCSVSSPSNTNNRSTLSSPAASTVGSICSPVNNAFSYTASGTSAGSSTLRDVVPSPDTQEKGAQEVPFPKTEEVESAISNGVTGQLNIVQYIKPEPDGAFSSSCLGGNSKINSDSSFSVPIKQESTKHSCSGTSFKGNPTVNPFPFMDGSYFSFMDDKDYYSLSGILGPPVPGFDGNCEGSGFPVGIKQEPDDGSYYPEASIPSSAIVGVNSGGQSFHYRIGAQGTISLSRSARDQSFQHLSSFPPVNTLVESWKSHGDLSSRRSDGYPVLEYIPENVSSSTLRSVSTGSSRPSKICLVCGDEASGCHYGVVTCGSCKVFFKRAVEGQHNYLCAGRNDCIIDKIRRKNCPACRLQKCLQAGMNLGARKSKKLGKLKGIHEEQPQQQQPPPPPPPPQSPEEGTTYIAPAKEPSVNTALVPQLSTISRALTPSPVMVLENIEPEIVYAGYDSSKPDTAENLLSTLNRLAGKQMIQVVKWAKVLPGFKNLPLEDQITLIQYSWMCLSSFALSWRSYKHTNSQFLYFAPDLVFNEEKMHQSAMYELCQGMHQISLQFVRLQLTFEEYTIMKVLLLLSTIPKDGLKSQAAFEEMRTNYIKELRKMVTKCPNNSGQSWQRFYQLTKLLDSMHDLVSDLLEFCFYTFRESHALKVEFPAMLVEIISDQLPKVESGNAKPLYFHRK
Description: Displacement of [3H]aldosterone from cytosolic human MR expressed in HEK293 cells after 16 hrs by scintillation counting

[2] = biological target: T2, Androgen receptor (Homo sapiens, UniProt P10275); assay: Displacement of [3H]testosterone from AR
T2 sequence (P10275 whole entry): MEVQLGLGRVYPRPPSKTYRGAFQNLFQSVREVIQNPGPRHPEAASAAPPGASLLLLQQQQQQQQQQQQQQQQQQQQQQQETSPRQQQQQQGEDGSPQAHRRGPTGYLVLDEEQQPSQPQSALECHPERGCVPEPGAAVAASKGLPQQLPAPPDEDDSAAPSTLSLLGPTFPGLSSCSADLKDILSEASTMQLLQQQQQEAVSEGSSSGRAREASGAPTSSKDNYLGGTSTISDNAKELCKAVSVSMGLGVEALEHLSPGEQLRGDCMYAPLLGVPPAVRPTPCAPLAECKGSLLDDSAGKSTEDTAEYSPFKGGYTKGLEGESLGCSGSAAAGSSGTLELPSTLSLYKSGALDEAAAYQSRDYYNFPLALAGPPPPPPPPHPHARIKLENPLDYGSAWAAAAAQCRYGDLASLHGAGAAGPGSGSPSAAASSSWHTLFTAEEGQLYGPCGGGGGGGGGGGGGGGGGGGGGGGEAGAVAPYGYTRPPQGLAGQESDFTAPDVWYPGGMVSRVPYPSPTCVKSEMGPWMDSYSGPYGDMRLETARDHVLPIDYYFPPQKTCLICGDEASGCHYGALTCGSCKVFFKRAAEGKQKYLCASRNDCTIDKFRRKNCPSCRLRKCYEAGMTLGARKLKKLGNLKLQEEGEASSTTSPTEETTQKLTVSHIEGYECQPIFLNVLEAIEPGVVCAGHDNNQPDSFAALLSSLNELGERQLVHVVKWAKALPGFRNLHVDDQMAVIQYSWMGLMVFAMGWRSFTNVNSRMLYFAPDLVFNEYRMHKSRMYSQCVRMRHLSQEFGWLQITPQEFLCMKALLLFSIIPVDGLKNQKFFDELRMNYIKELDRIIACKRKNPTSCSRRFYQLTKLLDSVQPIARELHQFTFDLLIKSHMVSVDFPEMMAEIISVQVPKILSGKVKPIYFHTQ

[3] = biological target: T3, Glucocorticoid receptor (Homo sapiens, UniProt P04150); assay: Displacement of [3H]dexomethasone from GR
T3 sequence (P04150 whole entry): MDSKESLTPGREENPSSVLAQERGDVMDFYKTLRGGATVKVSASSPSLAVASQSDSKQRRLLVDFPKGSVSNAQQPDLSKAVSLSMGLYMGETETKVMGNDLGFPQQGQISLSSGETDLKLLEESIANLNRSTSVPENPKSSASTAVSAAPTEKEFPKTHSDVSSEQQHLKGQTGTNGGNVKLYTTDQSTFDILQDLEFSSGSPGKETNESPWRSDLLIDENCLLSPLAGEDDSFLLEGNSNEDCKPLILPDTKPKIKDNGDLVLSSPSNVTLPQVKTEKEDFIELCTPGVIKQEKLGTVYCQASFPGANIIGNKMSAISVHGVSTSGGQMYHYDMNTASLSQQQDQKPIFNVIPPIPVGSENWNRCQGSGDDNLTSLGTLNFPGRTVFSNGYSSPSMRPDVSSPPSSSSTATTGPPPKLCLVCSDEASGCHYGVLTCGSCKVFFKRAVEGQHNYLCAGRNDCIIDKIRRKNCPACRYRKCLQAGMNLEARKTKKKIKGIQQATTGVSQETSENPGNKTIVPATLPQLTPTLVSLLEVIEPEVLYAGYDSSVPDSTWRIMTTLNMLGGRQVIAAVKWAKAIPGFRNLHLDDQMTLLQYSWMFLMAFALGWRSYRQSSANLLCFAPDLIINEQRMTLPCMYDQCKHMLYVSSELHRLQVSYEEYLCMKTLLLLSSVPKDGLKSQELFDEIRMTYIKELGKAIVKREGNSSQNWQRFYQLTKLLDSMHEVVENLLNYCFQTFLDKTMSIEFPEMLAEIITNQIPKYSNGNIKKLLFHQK

[4] = biological target: T4, Progesterone receptor (Homo sapiens, UniProt P06401); assay: Displacement of [3H]progesterone from PR
T4 sequence (P06401 whole entry): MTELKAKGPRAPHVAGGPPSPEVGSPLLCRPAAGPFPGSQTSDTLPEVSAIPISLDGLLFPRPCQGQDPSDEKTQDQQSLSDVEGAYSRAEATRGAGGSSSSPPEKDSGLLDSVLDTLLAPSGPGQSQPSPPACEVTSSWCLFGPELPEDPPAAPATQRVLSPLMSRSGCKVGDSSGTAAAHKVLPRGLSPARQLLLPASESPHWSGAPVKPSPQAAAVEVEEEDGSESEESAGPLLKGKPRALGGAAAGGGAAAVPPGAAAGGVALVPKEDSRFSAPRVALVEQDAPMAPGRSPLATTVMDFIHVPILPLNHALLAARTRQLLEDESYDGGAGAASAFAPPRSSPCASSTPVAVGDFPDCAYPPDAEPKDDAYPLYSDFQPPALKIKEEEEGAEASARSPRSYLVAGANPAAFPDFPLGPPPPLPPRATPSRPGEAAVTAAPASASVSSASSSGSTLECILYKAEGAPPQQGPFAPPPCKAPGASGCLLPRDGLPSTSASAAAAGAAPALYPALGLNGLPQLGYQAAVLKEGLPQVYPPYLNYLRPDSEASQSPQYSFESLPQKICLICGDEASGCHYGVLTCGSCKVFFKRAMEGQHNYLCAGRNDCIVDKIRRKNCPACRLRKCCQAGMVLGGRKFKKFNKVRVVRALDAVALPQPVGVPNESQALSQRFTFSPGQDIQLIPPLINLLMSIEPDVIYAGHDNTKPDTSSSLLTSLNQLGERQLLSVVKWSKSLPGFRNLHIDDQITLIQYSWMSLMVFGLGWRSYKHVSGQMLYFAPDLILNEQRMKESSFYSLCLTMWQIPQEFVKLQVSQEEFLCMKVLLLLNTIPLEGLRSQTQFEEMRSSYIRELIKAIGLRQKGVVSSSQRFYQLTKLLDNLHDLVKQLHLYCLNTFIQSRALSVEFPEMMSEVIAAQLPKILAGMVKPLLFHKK

[5] = Bioavailability in Sprague-Dawley rat at 3 mg/kg, iv and 10 mg/kg, po; type: ADME, organism-based; conditions: in vivo
[6] = Clearance in rat liver microsomes at 1 umol/L preincubated for 5 mins measured after 60 mins by UV analysis; type: ADME, Microsome
[7] = biological target: T1, Mineralocorticoid receptor
Description: Antagonist activity at human MR transfected in human COS1 cells after 1 day by luciferase reporter gene assay

Row | Compound | pIC50 [1] | pIC50 [2] | pIC50 [3] | pIC50 [4] | bioavailability [5] | microsomal CLint at 1 µM [6] | pIC50 [7]
1 | Cc1nc(-c2ccc3c(c2)NC(=O)CO3)c(-c2ccccc2)s1 | < 5.00 | – | – | – | – | – | –
2 | O=C1COc2ccc(-c3cc(C(F)(F)F)nn3-c3ccccc3Cl)cc2N1 | 6.37 | – | – | – | – | – | –
3 | O=C1COc2ccc(C3=Nc4ccccc4SC3c3ccccc3)cc2N1 (configuration not stated) | 7.16 | 5.92 | 6.02 | 5.85 | – | – | –
4 | O=C1COc2ccc(-c3cc(C(F)(F)F)nn3-c3cccc(F)c3)cc2N1 | 5.96 | – | – | – | – | – | –
5 | CCCC1Sc2nncn2N=C1c1ccc2c(c1)NC(=O)CO2 (configuration not stated) | 5.39 | – | – | – | – | – | –
6 | O=C1COc2ccc(-c3cc(C(F)(F)F)nn3-c3ccc(F)cc3)cc2N1 | 6.59 | – | – | – | 28% | 24 µL/min/mg | –
7 | O=C1COc2ccc(C3=Nn4cnnc4SC3Cc3ccccc3)cc2N1 (configuration not stated) | 5.89 | – | – | – | – | – | –
8 | Cc1ccc(-n2nc(C(F)(F)F)cc2-c2ccc3c(c2)NC(=O)CO3)cc1 | 6.23 | – | – | – | – | – | –
9 | CCc1ccccc1-n1nc(C(F)(F)F)cc1-c1ccc2c(c1)NC(=O)CO2 | 6.15 | – | – | – | – | – | –
10 | N#Cc1cc(-c2ccc3c(c2)NC(=O)CO3)n(-c2ccc(F)cc2)n1 | 6.04 | – | – | – | – | – | –
11 | Cc1ccccc1-n1nc(C(F)(F)F)cc1-c1ccc2c(c1)NC(=O)CO2 | 7.10 | < 5.00 | 5.60 | 5.31 | – | – | 6.82
12 | O=C1COc2ccc(-c3c(C(F)(F)F)cnn3-c3ccc(F)cc3)cc2N1 | 5.57 | – | – | – | – | – | –
13 | O=C1COc2ccc(C3=Nn4cnnc4SC3c3ccccc3)cc2N1 (configuration not stated) | – | 5.44 | 5.25 | < 5.00 | – | – | –
14 | CC(C)c1cc(-c2ccc3c(c2)NC(=O)CO3)n(-c2ccc(F)cc2)n1 | < 5.00 | – | – | – | – | – | –
15 | Cc1cc(F)ccc1-n1nc(C(F)(F)F)cc1-c1cc(C)c2c(c1)NC(=O)CO2 | 7.68 | < 5.00 | 6.33 | 5.62 | – | – | 7.82
16 | O=C1COc2ccc(C3=Nn4cnnc4SC3c3ccccc3F)cc2N1 (configuration not stated) | 6.22 | 5.23 | 5.26 | < 5.00 | – | – | –

Row | Compound | pIC50 [1] | pIC50 [2] | pIC50 [3] | pIC50 [4] | bioavailability [5] | microsomal CLint at 1 µM [6] | pIC50 [7]
17 | Cc1cc(F)ccc1-n1nc(C(F)(F)F)cc1-c1cc(Cl)c2c(c1)NC(=O)CO2 | 7.92 | 5.35 | 6.70 | 6.03 | – | – | 7.15
18 | O=C1COc2ccc(C3=Nn4cnnc4SC3c3ccc(F)cc3)cc2N1 (configuration not stated) | 6.57 | < 5.00 | < 5.00 | < 5.00 | – | 60 µL/min/mg | –
19 | O=C1COc2ccc(C3=Nn4ccnc4SC3c3ccccc3)cc2N1 (configuration not stated) | 7.44 | 7.02 | 5.46 | 6.46 | – | – | –
20 | O=C1COc2ccc(-c3cc(CO)nn3-c3ccc(F)cc3)cc2N1 | 5.17 | – | – | – | – | – | –
21 | Cc1cc(F)ccc1-n1nc(C(F)(F)F)cc1-c1cc(F)c2c(c1)NC(=O)CO2 | 7.12 | < 5.00 | 5.77 | 5.74 | – | – | 7.07
22 | Cc1cc(-c2ccc3c(c2)NC(=O)CO3)n(-c2ccccc2)n1 | 5.28 | < 5.00 | < 5.00 | < 5.00 | – | – | –
23 | O=C1COc2ccc(-c3cc(C(F)(F)C(F)(F)F)nn3-c3ccc(F)cc3)cc2N1 | 6.24 | – | – | – | – | – | –
24 | CCc1cc(-c2ccc3c(c2)NC(=O)CO3)n(-c2ccc(F)cc2)n1 | 6.02 | – | – | – | – | – | –
25 | O=C1COc2ccc(C3=Nn4cnnc4SC3)cc2N1 | 5.70 | < 5.00 | < 5.00 | 5.80 | – | – | –
26 | O=C1COc2ccc(-c3cc(C(F)(F)F)nn3-c3ccc(Cl)cc3)cc2N1 | 6.49 | – | – | – | – | – | –
27 | O=C1COc2ccc(-c3cc(C(F)(F)F)nn3-c3ccccc3F)cc2N1 | 6.36 | – | – | – | – | – | –
28 | O=C1COc2ccc(C3=Nn4cnnc4SC3c3cccc(F)c3)cc2N1 (configuration not stated) | 6.51 | 5.33 | < 5.00 | < 5.00 | – | – | –
29 | CC1(c2ccccc2)Sc2nncn2N=C1c1ccc2c(c1)NC(=O)CO2 (configuration not stated) | < 5.00 | – | – | – | – | – | –
30 | Cc1nc(-c2ccc3c(c2)NC(=O)CO3)c(-c2ccccc2)[nH]1 | < 5.00 | – | – | – | – | – | –
31 | Cc1cc(-c2ccc3c(c2)NC(=O)CO3)n(-c2ccc(F)cc2)n1 | 5.96 | < 5.00 | 5.16 | < 5.00 | – | 164 µL/min/mg | –
